Assays:
Assay in all cases: normalised viability (% of control), CellTiter-Blue; higher = more viable cells (100 = DMSO, 0 = benzethonium chloride kill control)
Conditions in all cases: incubation time: 72 h
DU-4475 = test system: DU-4475
Protocol: (§1)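 DSRT, CellTiter-Blue viability, 72 h incubation. Signal is normalised to DMSO and benzethonium chloride controls. Value is the normalised response at dose 1.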

HCC1143 = test system: HCC1143
Protocol: as §1

HDQ-P1 = test system: HDQ-P1
Protocol: as §1

SK-BR-3 = test system: SK-BR-3
Protocol: as §1

Hs578T = test system: Hs578T
Protocol: as §1

MDA-MB-231 = test system: MDA-MB-231
Protocol: as §1

CAL-120 = test system: CAL-120
Protocol: as §1

CAL-85-1 = test system: CAL-85-1
Protocol: as §1

MDA-MB-436 = test system: MDA-MB-436
Protocol: as §1

HCC1937 = test system: HCC1937
Protocol: as §1

HCC1599 = test system: HCC1599
Protocol: as §1

BT-549 = test system: BT-549
Protocol: as §1

CAL-148 = test system: CAL-148
Protocol: as §1

CAL-51 = test system: CAL-51
Protocol: as §1

BT-474 = test system: BT-474
Protocol: as §1

MDA-MB-453 = test system: MDA-MB-453
Protocol: as §1

MFM-223 = test system: MFM-223
Protocol: as §1

MDA-MB-468 = test system: MDA-MB-468
Protocol: as §1

Structure (SMILES) | normalised viability (DU-4475) [%] | normalised viability (HCC1143) [%] | normalised viability (HDQ-P1) [%] | normalised viability (SK-BR-3) [%] | normalised viability (Hs578T) [%] | normalised viability (MDA-MB-231) [%] | normalised viability (CAL-120) [%] | normalised viability (CAL-85-1) [%] | normalised viability (MDA-MB-436) [%] | normalised viability (HCC1937) [%] | normalised viability (HCC1599) [%] | normalised viability (BT-549) [%] | normalised viability (CAL-148) [%] | normalised viability (CAL-51) [%] | normalised viability (BT-474) [%] | normalised viability (MDA-MB-453) [%] | normalised viability (MFM-223) [%] | normalised viability (MDA-MB-468) [%]
C[C@]1(O)C[C@@H](c2nc(-c3ccc4ccc(-c5ccccc5)nc4c3)c3c(N)nccn32)C1 [OSI-906] (1 nM) | 89 | 96.8 | 74.5 | 91.1 | 101 | 83.7 | 97.4 | 100 | 85 | 92.3 | 100 | 95.7 | 94.6 | 95.6 | 82.9 | 85.7 | 95.6 | 100
C[C@]12CC[C@@H]3c4ccc(OC(=O)N(CCCl)CCCl)cc4CC[C@H]3[C@@H]1CC[C@@H]2O [Estramustine] (0.099 nM) | 89.9 | 104 | 106 | 114 | 94.3 | 93.3 | 111 | 108 | 106 | 91.8 | 84.8 | 92.4 | 109 | 84 | 93.4 | 98.9 | 106 | 107
CC(=O)c1c(C)c2cnc(Nc3ccc(N4CCNCC4)cn3)nc2n(C2CCCC2)c1=O (1 nM) | 99 | 100 | 79.2 | 93.1 | 89.5 | 94.6 | 87.1 | 87.9 | 94.1 | 94.7 | 105 | 102 | 107 | 104 | 108 | 106 | 88.5 | 109
COc1cc(F)c(F)c(Nc2ccc(I)cc2F)c1NS(=O)(=O)C1(C[C@H](O)CO)CC1 [RDEA119] (1 nM) | 99.3 | 98.8 | 79.4 | 106 | 95.4 | 77.4 | 98.7 | 108 | 104 | 80.9 | 93 | 97.3 | 88.7 | 91.8 | 79.7 | 84.5 | 92.5 | 95.8

From the supplement of paper PMC4862054
